Earlier results, collected in patent US8298564B2, “Two part antimicrobial boot” (Medtronic, Inc., priority 2006, dated 2012).

Key:
[1] = not given; remark: listed apart in the source

degradation with ethylene oxide sterilization ([1]; ethylene oxide sterilization)	Structure (SMILES)	degradation under steam sterilization	degradation or loss in antimicrobial activity of rifampin-containing devices treated with ethylene oxide ([1]; devices containing rifampin treated with ethylene oxide, reported by numerous studies)	degradation on ethylene oxide sterilization, as discovered in U.S. patent application Ser. No. 11/535,762 ([1]; ethylene oxide sterilization)
–	CO[C@H]1/C=C/O[C@@]2(C)Oc3c(C)c(O)c4c(O)c(c(/C=N/N5CCN(C)CC5)c(O)c4c3C2=O)NC(=O)/C(C)=C\C=C\[C@H](C)[C@H](O)[C@@H](C)[C@@H](O)[C@@H](C)[C@H](OC(C)=O)[C@@H]1C [rifampin]	fairly stable	no detectable degradation or no loss in antimicrobial activity	substantial degradation
does not appear to substantially degrade	CN(C)c1ccc(O)c2c1C[C@H]1C[C@H]3[C@H](N(C)C)C(O)=C(C(N)=O)C(=O)[C@@]3(O)C(O)=C1C2=O [minocycline]	degrades to unacceptable levels	–	–
